# Assays:
# [1] = biological target: D(2) dopamine receptor (Homo sapiens, UniProt P14416); assay: Binding affinity to human cloned dopamine D2 receptor
# [2] = biological target: Adenosine receptor (Homo sapiens, UniProt P30542+P29275+P0DMS8+P29274); assay: Inhibitory activity against adenosine receptor; format: protein assay
# [3] = Inhibitory activity against adrenergic receptor
# [4] = biological target: D(1A) dopamine receptor (Homo sapiens, UniProt P21728); assay: Inhibitory activity against dopamine D1 receptor
# [5] = biological target: GABA-A receptor; anion channel; assay: Inhibitory activity against central benzodiazepine receptor; format: protein-complex assay
# [6] = biological target: D(1B) dopamine receptor (Homo sapiens, UniProt P21918); assay: Inhibitory activity against dopamine D5 receptor
# [7] = Inhibitory activity against GABA receptor
# [8] = biological target: Muscarinic acetylcholine receptor; assay: Inhibitory activity against muscarinic receptor; format: protein assay
# [9] = Inhibitory activity against 5HT receptor
# [10] = biological target: T1, Cholecystokinin receptor (Homo sapiens, UniProt P32239+P32238); assay: Inhibitory activity against cholecystokinin receptor; format: protein assay
# T1 sequence (P32239 whole entry): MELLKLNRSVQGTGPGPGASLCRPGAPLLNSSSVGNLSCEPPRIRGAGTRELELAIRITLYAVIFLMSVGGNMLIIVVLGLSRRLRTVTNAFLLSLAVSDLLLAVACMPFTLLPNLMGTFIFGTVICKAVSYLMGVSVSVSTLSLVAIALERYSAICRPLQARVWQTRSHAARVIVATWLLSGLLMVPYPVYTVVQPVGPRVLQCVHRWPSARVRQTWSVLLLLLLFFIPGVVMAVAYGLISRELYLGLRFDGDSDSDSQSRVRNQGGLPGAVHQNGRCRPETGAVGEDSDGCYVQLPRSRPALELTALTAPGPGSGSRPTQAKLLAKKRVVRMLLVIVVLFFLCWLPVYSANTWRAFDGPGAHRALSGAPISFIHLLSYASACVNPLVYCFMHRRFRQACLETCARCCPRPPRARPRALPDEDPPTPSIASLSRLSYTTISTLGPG
# T1 sequence (P32238 whole entry): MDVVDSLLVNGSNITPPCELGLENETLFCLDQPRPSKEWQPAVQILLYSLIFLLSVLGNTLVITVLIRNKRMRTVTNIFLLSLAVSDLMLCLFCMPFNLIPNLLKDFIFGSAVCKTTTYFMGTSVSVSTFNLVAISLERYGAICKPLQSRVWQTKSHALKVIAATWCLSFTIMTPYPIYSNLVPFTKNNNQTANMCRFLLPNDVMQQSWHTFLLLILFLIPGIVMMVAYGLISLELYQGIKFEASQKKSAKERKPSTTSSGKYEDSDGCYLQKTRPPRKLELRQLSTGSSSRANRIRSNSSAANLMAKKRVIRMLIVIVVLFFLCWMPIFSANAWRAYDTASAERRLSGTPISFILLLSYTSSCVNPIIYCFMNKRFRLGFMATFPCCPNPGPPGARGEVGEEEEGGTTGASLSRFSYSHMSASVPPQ
# [11] = biological target: Opioid receptors; mu/kappa/delta (Homo sapiens, UniProt P41145+P41143+P35372); assay: Inhibitory activity against opioid receptor; format: protein assay
# [12] = Inhibitory activity against neurotransmitter transporter
# [13] = test system: Liver microsomes; assay: Metabolic stability in rat liver microsomes; format: ADME, Microsome
# [14] = species: Canis familiaris; assay: Metabolic stability in dog liver microsomes; format: ADME, Canis lupus familiaris
# [15] = test system: Liver microsomes; assay: Metabolic stability in human liver microsomes; format: ADME, Microsome
# [16] = Permeability across Caco-2 cell membrane; format: ADME, cell-based; settings: human
# [17] = test system: Rattus norvegicus; assay: Ability to restitute huddling in rat at 2.15 mg/kg, po; format: functional
# [18] = biological target: D(3) dopamine receptor (Homo sapiens, UniProt P35462); assay: Binding affinity to human cloned dopamine D3 receptor
# Chain of D(3) dopamine receptor (P35462 whole entry): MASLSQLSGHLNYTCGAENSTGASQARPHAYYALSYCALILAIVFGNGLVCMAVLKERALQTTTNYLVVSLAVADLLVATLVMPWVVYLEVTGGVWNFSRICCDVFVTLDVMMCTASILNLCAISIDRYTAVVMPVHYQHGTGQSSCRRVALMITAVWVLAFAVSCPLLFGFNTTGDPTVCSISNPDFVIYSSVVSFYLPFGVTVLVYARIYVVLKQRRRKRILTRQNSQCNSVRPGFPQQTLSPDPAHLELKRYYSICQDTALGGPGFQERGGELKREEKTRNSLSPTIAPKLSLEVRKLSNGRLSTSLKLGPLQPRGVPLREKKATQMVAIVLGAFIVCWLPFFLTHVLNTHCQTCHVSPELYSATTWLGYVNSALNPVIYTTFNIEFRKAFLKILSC
# Chain of D(2) dopamine receptor (P14416 whole entry): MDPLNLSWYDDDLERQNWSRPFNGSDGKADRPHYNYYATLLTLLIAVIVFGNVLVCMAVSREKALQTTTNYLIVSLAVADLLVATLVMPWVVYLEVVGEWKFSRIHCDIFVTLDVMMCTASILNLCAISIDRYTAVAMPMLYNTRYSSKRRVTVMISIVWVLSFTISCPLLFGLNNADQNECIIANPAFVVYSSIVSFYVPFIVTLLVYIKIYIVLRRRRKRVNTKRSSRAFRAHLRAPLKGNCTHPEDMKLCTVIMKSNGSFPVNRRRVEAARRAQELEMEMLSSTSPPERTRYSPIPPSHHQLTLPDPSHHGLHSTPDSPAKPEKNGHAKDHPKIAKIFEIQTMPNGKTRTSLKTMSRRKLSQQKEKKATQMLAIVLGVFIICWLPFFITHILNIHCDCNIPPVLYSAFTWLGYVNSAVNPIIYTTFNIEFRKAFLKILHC
# Chain of D(1B) dopamine receptor (P21918 whole entry): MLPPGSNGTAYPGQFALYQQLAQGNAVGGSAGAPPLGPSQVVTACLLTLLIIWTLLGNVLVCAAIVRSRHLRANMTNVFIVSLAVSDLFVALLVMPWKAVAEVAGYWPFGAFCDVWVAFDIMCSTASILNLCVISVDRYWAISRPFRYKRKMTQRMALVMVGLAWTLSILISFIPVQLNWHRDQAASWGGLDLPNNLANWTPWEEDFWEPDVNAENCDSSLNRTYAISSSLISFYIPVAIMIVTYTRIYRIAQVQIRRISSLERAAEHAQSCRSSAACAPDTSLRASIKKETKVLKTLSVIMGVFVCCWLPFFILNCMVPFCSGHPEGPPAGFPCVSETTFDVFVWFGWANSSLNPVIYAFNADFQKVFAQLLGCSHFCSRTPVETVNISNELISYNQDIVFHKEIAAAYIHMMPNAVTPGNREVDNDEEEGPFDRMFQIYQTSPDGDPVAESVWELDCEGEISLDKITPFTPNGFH
# Chain of D(1A) dopamine receptor (P21728 whole entry): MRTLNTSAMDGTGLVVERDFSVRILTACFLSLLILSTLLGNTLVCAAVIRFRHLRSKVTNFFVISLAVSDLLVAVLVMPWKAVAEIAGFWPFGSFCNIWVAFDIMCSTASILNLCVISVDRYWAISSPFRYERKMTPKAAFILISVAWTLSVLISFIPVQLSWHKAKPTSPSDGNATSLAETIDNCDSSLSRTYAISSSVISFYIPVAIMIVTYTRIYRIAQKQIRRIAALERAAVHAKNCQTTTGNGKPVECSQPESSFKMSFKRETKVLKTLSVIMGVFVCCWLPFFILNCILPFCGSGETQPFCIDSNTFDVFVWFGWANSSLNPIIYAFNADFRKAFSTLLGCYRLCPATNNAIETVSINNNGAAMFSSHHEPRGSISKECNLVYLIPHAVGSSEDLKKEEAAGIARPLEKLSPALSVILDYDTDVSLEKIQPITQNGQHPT
SMILES,Ki [1] [nM],Ki [18] [nM],further results
CC(C)(C)c1nc(N2CCN(CCCCN3C(=O)CCC(=O)c4ccccc43)CC2)cc(C(F)(F)F)n1,246,,IC50 [2]: > 10000 nM; IC50 [3]: > 10000 nM; IC50 [4]: > 10000 nM; IC50 [5]: > 10000 nM; IC50 [6]: > 10000 nM; IC50 [7]: > 10000 nM; IC50 [8]: > 10000 nM; IC50 [9]: > 10000 nM; IC50 [10]: > 10000 nM; IC50 [11]: > 10000 nM; IC50 [12]: > 10000 nM; Stability [13]: > 97%; Stability [14]: > 97%; Stability [15]: > 97%; Papp [16]: 0.33 ×10⁻⁶ cm/s; Activity [17]: 37%
CC(C)(C)c1nc(N2CCN(CCCCN3C(=O)CCCc4c(O)cccc43)CC2)cc(C(F)(F)F)n1,93,,
CC(C)(C)c1nc(N2CCN(CCCCN3C(=O)CC(=O)c4ccccc43)CC2)cc(C(F)(F)F)n1,142,39.6,
C/C(=C\CN1CCN(c2cc(C(F)(F)F)nc(C(C)(C)C)n2)CC1)CN1C(=O)CCc2ccccc21,669,58.9,
CC(C)(C)c1nc(N2CCN(CCCCN3CCC(=O)CCC3=O)CC2)cc(C(F)(F)F)n1,65,3.9,
CC(C)(C)c1nc(N2CCN(CCCCCN3C(=O)CCc4ccccc43)CC2)cc(C(F)(F)F)n1,,4050,
CC(C)(C)c1nc(N2CCN(C/C=C/CN3C(=O)CCc4ccccc43)CC2)cc(C(F)(F)F)n1,254,,
CC(C)(C)c1nc(N2CCN(CCCN3C(=O)CCc4ccccc43)CC2)cc(C(F)(F)F)n1,,93.8,
CC(C)(C)c1nc(N2CCN(CCCCn3c(=O)ccc4ccccc43)CC2)cc(C(F)(F)F)n1,151,11.2,
COc1cccc2c1CCCC(=O)N2CCCCN1CCN(c2cc(C(F)(F)F)nc(C(C)(C)C)n2)CC1,243,10.1,
C[C@@H](CCCN1C(=O)CCc2ccccc21)N1CCN(c2cc(C(F)(F)F)nc(C(C)(C)C)n2)CC1,289,22.4,
COc1cc2c(cc1OC)N(CCCCN1CCN(c3cc(C(F)(F)F)nc(C(C)(C)C)n3)CC1)C(=O)CCC2=O,467,,
CC(C)(C)c1nc(N2CCN(CCCCN3C(=O)CCSc4ccccc43)CC2)cc(C(F)(F)F)n1,83,9.6,
CC(C)(C)c1nc(N2CCN(CCCCN3C(=O)CCCc4ccccc43)CC2)cc(C(F)(F)F)n1,118,16.8,
CC(C)(C)c1nc(N2CCN(CCCCN3C(=O)COc4ccccc43)CC2)cc(C(F)(F)F)n1,354,12.1,
CC(C)(C)c1nc(N2CCN(CCCCN3C(=O)CCc4ccccc43)CC2)cc(C(F)(F)F)n1,126,3.4,
C[C@H](CCN1CCN(c2cc(C(F)(F)F)nc(C(C)(C)C)n2)CC1)CN1C(=O)CCc2ccccc21,261,64.9,
CC(C)(C)c1nc(N2CCN(CCCCN3Cc4ccccc4CC3=O)CC2)cc(C(F)(F)F)n1,,293,
